Patent US6699459B2, “Methods of treating lung inflammation” (The Board of Regents of the University of Texas System, priority 2001, dated 2004)
“Also recorded” adds a separate entry of the source.

Key:
[1] = test system: RANTES; test: RSV-induced RANTES secretion in SAE cells (ELISA); format: cell-based, human
Protocol: Cell culture and infection of epithelial cells with RSV. A549, human alveolar type II-like epithelial cells (ATCC, Manassas, Va.), were maintained in F12K medium containing 10% (v/v) fetal bovine serum (FBS), 10 mM glutamine, 100 IU/ml penicillin and 100 μg/ml streptomycin. Small alveolar epithelial cells (SAE) were obtained from Clonetics (San Diego, Calif.) and grown according to the company instructions. Cell monolayers were infected with RSV at multiplicity of infection (MOI) of 1 (unless otherwise stated), as described (17). An equivalent amount of a 20% sucrose solution was added to uninfected A549 cells, as a control. For the antioxidant experiments, cells were pretreated with the antioxidants for one hour and then infected in the presence of the antioxidants. Since BHA was diluted in ethanol, equal amounts of ethanol were added to untreated cells, as a control. Total number of cells, cell viability and viral replication, following antioxidant treatment, were measured by trypan blue exclusion and by plaque assay, respectively. RANTES ELISA. Immunoreactive RANTES was quantitated by a double antibody ELISA kit (DuoSet, R&D Systems, Minneapolis, Minn.) following the manufacturer's protocol.

[2] = test system: RANTES ISRE; test: EMSA of RANTES ISRE binding complexes, nuclear extracts of RSV-infected A549 cells; format: cell-based, human; conditions: RSV 12 hours, 400 μM
Protocol: Electrophoretic mobility shift assay (EMSA): Nuclear extracts of uninfected and infected A549 cells were prepared using hypotonic/nonionic detergent lysis, as previously described (20). Proteins were normalized by protein assay (Protein Reagent, Bio-Rad, Hercules, Calif.) and used to bind to a duplex oligonucleotide corresponding to the RANTES ISRE, whose sequences is shown below:
DNA-binding reactions contained 10-15 μg nuclear proteins, 5% glycerol, 12 mM HEPES, 80 mM NaCl, 5 mM dithiothreitol (DTT), 5 mM Mg2Cl, 0.5 mM EDTA, 1 μg of poly dI-dC and 40,000 cpm of ^32P-labeled double-stranded oligonucleotide in a total volume of 20 μl. The nuclear proteins were incubated with the probe for 15 minutes at room temperature and then fractionated by 6% nondenaturing polyacrylamide gels (PAGE) in TBE buffer (22 mM Tris-HCl, 22 mM boric acid, 0.25 mM EDTA, pH 8). After electrophoretic separation, gels were dried and exposed for autoradiography using Kodak XAR film at −70° C. using intensifying screens.

[3] = test system: IRF-1; test: Western blot of IRF-1 in total cell lysates of RSV-infected A549 cells; format: cell-based, human; conditions: whole cell extracts, RSV 12 hours, 400 μM
Protocol: Western Immunoblot. Total cell lysates and cytoplasmic and nuclear proteins were prepared as previously described, fractionated by SDS-PAGE and transferred to PVDF membrane (20). Membranes were blocked with 5% albumin in TBS-Tween and incubated overnight with a rabbit polyclonal antibody to IRF-1, -3 and -7 (Santa Cruz Biotech, Santa Cruz, Calif.). For secondary detection, a horseradish-coupled anti-rabbit or anti-mouse antibody was used in the enhanced chemiluminescence assay (Amersham Pharmacia Biotec, Arlington Heights, Ill.).

[4] = test system: IRF-1 mRNA; test: Northern blot of IRF-1 mRNA in RSV-infected A549 cells; format: cell-based, human; conditions: 400 μM
Protocol: (§1) Northern Blot. Total RNA was extracted from control and infected A549 cells by the acid guanidium thiocyanate-phenol chloroform method (18). Twenty micrograms of RNA were fractionated on a 1.2% agarose-formaldehyde gel, transferred to nylon membranes and hybridized to a radiolabeled RANTES, IRF-1, -3 and -7 cDNAs, as previously described (19). Hybridization temperature for all probes was 55° C. After washing, membranes were exposed for autoradiography using Kodak XAR film at −70° C. using intensifying screens. After exposure, membranes were stripped and rehybridized with a β-actin probe.

[5] = test system: IRF-7 mRNA; test: Northern blot of IRF-7 mRNA in RSV-infected A549 cells; format: cell-based, human; conditions: 400 μM
Protocol: as §1

[6] = test system: human IRF-1 promoter; test: IRF-1 promoter luciferase reporter in A549 cells; format: cell-based
Protocol: (§2) Cell transfection. To investigate IRF-1 and -7 gene transcription, A549 cells were transiently transfected with the IRF-1 or -7 promoter, linked to the luciferase reporter gene. Logarithmically growing A549 cells were transfected in triplicate in 60 mm petri dishes by DEAE-Dextran, as previously described (20). Cells were incubated in 2 ml of HEPES buffered DMEM (10 mM Hepes, pH 7.4) containing 20 μl of 60 mg/ml DEAE-Dextran (Amersham Pharmacia Biotec, Arlington Heights, Ill.) premixed with 6 μg of either IRF-1 or -7 plasmids and 1 μg CMV-β galactosidase internal control plasmid. After 3 hours, media was removed and 0.5 ml of 10% (v/v) DMSO in PBS was added to the cells for 2 minutes. Cells were washed with PBS and cultured overnight in 10% FBS/DMEM. The next morning, cells were infected with RSV and cells were lysed at different times post-infectionto measure independently luciferase and galactosidase reporter activity, as previously described (20). Luciferase was normalized to the internal control galactosidase activity. All experiments were performed in duplicate or triplicate.

[7] = test system: human IRF-7 promoter; test: IRF-7 promoter luciferase reporter in A549 cells; format: cell-based
Protocol: as §2

[8] = test system: STAT-1; test: Western blot of phosphorylated and total nuclear STAT-1 in RSV-infected A549 cells; format: cell-based, human; conditions: nuclear proteins, 400 μM
Protocol: (§3) Western Immunoblot. Nuclear proteins were prepared as previously described, fractionated by SDS-PAGE and transferred to PVDF membrane (20). Membranes were blocked with 5% albumin in TBS-Tween and incubated overnight with antibody recognizing the tyrosine phosphorylated form of STAT-1 and STAT-3 (Santa Cruz Biotech, Santa Cruz, Calif.). Membranes were stripped and reprobed with antibodies to STAT-1 and STAT-3 (Santa Cruz Biotech, Santa Cruz, Calif.). For secondary detection, a horseradish-coupled anti-rabbit or anti-mouse antibody was used (Santa Cruz Biotech, Santa Cruz, Calif.) in the enhanced chemiluminescence assay (Amersham Life Science, Arlington Heights, Ill.).

[9] = test system: STAT-3; test: Western blot of phosphorylated and total nuclear STAT-3 in RSV-infected A549 cells; format: cell-based, human; conditions: nuclear proteins, 400 μM
Protocol: as §3

[10] = test system: NF-κB; test: RSV-induced NF-κB nuclear translocation and DNA-binding in A549 cells; format: cell-based, human; conditions: data not shown
[11] = test system: β-actin; test: β-actin mRNA (Northern blot) in A549 cells; format: cell-based, human; conditions: 400 μM, compared to untreated cells
Protocol: as §1

COc1ccc(O)c(C(C)(C)C)c1 [BHA, butylated hydroxyanisol]
effectiveness in reducing RSV-induced RANTES secretion, compared among the antioxidants [1]: most effective | RSV-induced RANTES production ([1]; 400 μM, 24 hours, ELISA): significantly reduced | RSV-induced RANTES ISRE binding [2]: completely abolished | RSV-induced IRF-1 protein synthesis [3]: almost completely abolished | IRF-1 mRNA accumulation ([4]; 6 and 12 hours post-infection): almost completely blocked | IRF-1 mRNA accumulation ([4]; 24 hours post-infection): significantly reduced | IRF-7 mRNA accumulation ([5]; 6 and 12 hours post-infection): almost completely blocked | IRF-7 mRNA accumulation ([5]; 24 hours post-infection): significantly reduced | basal level of transcription (IRF-1 promoter) ([6]; A549 cells): did not affect | RSV-induced luciferase activity (IRF-1 promoter) ([6]; RSV 12 hours, 400 μM): completely abolished | basal level of transcription (IRF-7 promoter) ([7]; A549 cells): did not affect | RSV-induced luciferase activity (IRF-7 promoter) ([7]; RSV 6 hours, 400 μM): completely abolished | RSV-induced STAT-1 phosphorylation [8]: completely blocked | RSV-inducible nuclear STAT-1 form [8]: disappears | nuclear STAT-1 form present in uninfected and infected cells [8]: not affected | RSV-induced STAT-3 nuclear translocation [9]: completely inhibited | RSV-induced STAT-3 phosphorylation [9]: completely abolished | RSV-induced NF-κB nuclear translocation and DNA-binding [10]: did not affect | levels of the housekeeping gene β-actin [11]: does not affect; also recorded: not systematically reduced
